# Laboratory results published in US12544375B2, “Small molecule therapeutic for parkinson's disease paired with a biomarker of therapeutic activity” (The Board of Trustees of the Leland Stanford Junior …, priority 2019, dated 2026).
# Target: T1, Miro1 (Homo sapiens, UniProt Q8IXI2)
# T1 construct: We applied compound 3 to fibroblasts from one sporadic PD patient (PD-2); endogenous in cells; host or cells: human skin fibroblasts (PD-2, Healthy-1 and further PD/control lines)
# Assay: GTPase activity of Miro1 IPed from fibroblasts
# Type: biochemical
# Settings: PD-2 fibroblasts, basal or depolarized condition
# Protocol: FIG. 8. Related to FIG. 2-4. Miro1 Reducer in Human Cell and Fly Models. (A) Fibroblasts from Healthy-1 and PD-2 were treated, lysed, and blotted as indicated. Band intensities are normalized to those of GAPDH from the same blots and compared to “Healthy-1, no treatment”. n=4 independent experiments. (B) Fibroblasts from PD-2 were treated and immunostained as indicated. The intensity was quantified for each cell across 264-320 cells from 3 independent experiments, compared to “no treatment”. (C) Fibroblasts were treated, immunoprecipitated (IPed) with anti-Miro1, and blotted as indicated. Similar results were observed twice. (D) Similar as in (C), fibroblasts were treated as indicated, and IPed with anti-Miro1. The GTPase activity of the IPed Miro1 protein was measured as described in Method. […] The MitoSox intensity was quantified for each cell across 106-161 cells from 3 coverslips. […] The TMRM intensity was measured for each cell across 48-60 cells from 3 independent experiments, and expressed as a fraction of the mean of “Healthy-1, no treatment”. […] The movement (the intensity of non-yellow) was quantified for each cell as described in (Tsai et al., 2014) across 22-31 cells from 3 transfections. […] (1) Left: The percentage of TH-positive iPSC-derived neurons out of total cells (Dapi-positive) is calculated after immunocytochemistry under 20× as described in FIG. 3. […]
# T1 sequence (Q8IXI2 whole entry): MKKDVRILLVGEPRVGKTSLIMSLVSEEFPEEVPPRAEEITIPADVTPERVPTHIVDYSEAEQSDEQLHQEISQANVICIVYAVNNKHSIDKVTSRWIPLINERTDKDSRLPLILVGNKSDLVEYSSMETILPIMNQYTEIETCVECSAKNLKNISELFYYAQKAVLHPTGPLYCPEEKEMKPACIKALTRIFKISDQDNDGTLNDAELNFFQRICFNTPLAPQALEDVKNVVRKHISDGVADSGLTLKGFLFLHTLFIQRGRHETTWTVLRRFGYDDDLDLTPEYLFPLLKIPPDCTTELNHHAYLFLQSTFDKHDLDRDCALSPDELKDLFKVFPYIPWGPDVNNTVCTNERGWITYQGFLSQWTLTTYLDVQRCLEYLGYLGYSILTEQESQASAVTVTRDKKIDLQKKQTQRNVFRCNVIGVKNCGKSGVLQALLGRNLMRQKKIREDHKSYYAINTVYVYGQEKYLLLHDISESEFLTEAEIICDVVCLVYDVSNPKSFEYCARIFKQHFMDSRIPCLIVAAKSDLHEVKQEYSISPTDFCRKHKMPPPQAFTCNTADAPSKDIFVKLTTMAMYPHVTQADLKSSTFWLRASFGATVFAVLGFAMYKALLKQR
structure (smiles),measurement,value
O=C(Nc1ccc(Nc2cc(-n3ccnc3)ncn2)cc1)Nc1cccc(F)c1 [Miro1 Reducer],GTPase activity of IPed Miro1,did not affect
